In article PMC12649549, “Sequence Permutation Generated Lysine and Tryptophan-Rich Antimicrobial Peptides with Enhanced Therapeutic Index” (Antibiotics, 2025):
Like-named read-outs stand apart in the source and are kept apart here.

What was measured:
[1] = test system: A. baumannii 14B00100 (Acinetobacter sp., BCRC number 14B0100)
How it was run: (§1)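 Salt and pH tolerance was assessed by determining MICs in LYM medium containing 50–300 mM NaCl, 0.5–2.5 mM MgCl2, or at pH 4.5–6.5, alongside MH broth. The inoculum was 5 × 10^5 CFU/mL.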

[2] = test system: A. baumannii 14B0091 (Acinetobacter sp., BCRC number 14B0091)
How it was run: as §1

S. aureus ATCC 33591 = test system: S. aureus ATCC 33591
How it was run: as §1

S. aureus ATCC 33593 = test system: S. aureus ATCC 33593
How it was run: as §1

S. aureus ATCC 25923 = test system: S. aureus ATCC 25923
How it was run: as §1

[3] = test system: Pseudomonas aeruginosa Migula (ATCC 27853)
How it was run: as §1

[4] = test system: Escherichia coli (ATCC 25922)
How it was run: as §1

[5] = LYM broth, 0 mM NaCl, 16 h, 37 °C
[6] = LYM broth, 50 mM NaCl, 16 h, 37 °C
[7] = LYM broth, 100 mM NaCl, 16 h, 37 °C
[8] = LYM broth, 200 mM (NaCl), 16 h, 37 °C
[9] = LYM broth, 300 mM (NaCl), 16 h, 37 °C
[10] = MH broth, 5 × 10^5 CFU/mL, 16 h, 37 °C, repeated three times

Ac-WRKWLKWLAKKKK-NH2 [Peptide W5K02]
MIC [1, 5]: 1.56 mg/L | MIC ([1]; LYM broth, 0.5 mM MgCl2): 1.56 mg/L | MIC ([1]; LYM broth, 1.5 mM MgCl2): 1.56 mg/L | MIC ([1]; LYM broth, 2.5 mM MgCl2): 3.13 mg/L | MIC [1, 6]: 1.56 mg/L | MIC [1, 7]: 1.56 mg/L | MIC [1, 8]: 3.13 mg/L | MIC [1, 9]: 6.25 mg/L | MIC ([1]; LYM broth, pH 4.5): 1.56 mg/L | MIC ([1]; LYM broth, pH 5.5): 1.56 mg/L | MIC ([1]; LYM broth, pH 6.5): 1.56 mg/L | MIC [1, 10]: 6.25 mg/L | MIC [2, 5]: 1.56 mg/L | MIC ([2]; LYM broth, 0.5 mM MgCl2): 1.56 mg/L | MIC ([2]; LYM broth, 1.5 mM MgCl2): 1.56 mg/L | MIC ([2]; LYM broth, 2.5 mM MgCl2): 1.56 mg/L | MIC [2, 6]: 1.56 mg/L | MIC [2, 7]: 1.56 mg/L | MIC [2, 8]: 3.13 mg/L | MIC [2, 9]: 6.25 mg/L | MIC ([2]; LYM broth, pH 4.5): 1.56 mg/L | MIC ([2]; LYM broth, pH 5.5): 1.56 mg/L | MIC ([2]; LYM broth, pH 6.5): 1.56 mg/L | MIC [2, 10]: 3.13 mg/L | MIC (S. aureus ATCC 33591; [5]): 6.25 mg/L | MIC (S. aureus ATCC 33591; LYM broth, 0.5 mM MgCl2): 6.25 mg/L | MIC (S. aureus ATCC 33591; LYM broth, 1.5 mM MgCl2): 6.25 mg/L | MIC (S. aureus ATCC 33591; LYM broth, 2.5 mM MgCl2): 6.25 mg/L | MIC (S. aureus ATCC 33591; [6]): 6.25 mg/L | MIC (S. aureus ATCC 33591; [7]): 12.5 mg/L | MIC (S. aureus ATCC 33591; [8]): 50 mg/L | MIC (S. aureus ATCC 33591; [9]): 50 mg/L | MIC (S. aureus ATCC 33591; LYM broth, pH 4.5): 6.25 mg/L | MIC (S. aureus ATCC 33591; LYM broth, pH 5.5): 6.25 mg/L | MIC (S. aureus ATCC 33591; LYM broth, pH 6.5): 6.25 mg/L | MIC (S. aureus ATCC 33591; [10]): 25 mg/L | MIC (S. aureus ATCC 33593; [5]): 6.25 mg/L | MIC (S. aureus ATCC 33593; LYM broth, 0.5 mM MgCl2): 6.25 mg/L | MIC (S. aureus ATCC 33593; LYM broth, 1.5 mM MgCl2): 6.25 mg/L | MIC (S. aureus ATCC 33593; LYM broth, 2.5 mM MgCl2): 6.25 mg/L | MIC (S. aureus ATCC 33593; [6]): 6.25 mg/L | MIC (S. aureus ATCC 33593; [7]): 12.5 mg/L | MIC (S. aureus ATCC 33593; [8]): 50 mg/L | MIC (S. aureus ATCC 33593; [9]): >50 mg/L | MIC (S. aureus ATCC 33593; LYM broth, pH 4.5): 6.25 mg/L | MIC (S. aureus ATCC 33593; LYM broth, pH 5.5): 6.25 mg/L | MIC (S. aureus ATCC 33593; LYM broth, pH 6.5): 3.13 mg/L | MIC (S. aureus ATCC 33593; [10]): 25 mg/L | MIC (S. aureus ATCC 25923; [5]): 6.25 mg/L | MIC (S. aureus ATCC 25923; LYM broth, 0.5 mM MgCl2): 6.25 mg/L | MIC (S. aureus ATCC 25923; LYM broth, 1.5 mM MgCl2): 6.25 mg/L | MIC (S. aureus ATCC 25923; LYM broth, 2.5 mM MgCl2): 6.25 mg/L | MIC (S. aureus ATCC 25923; [6]): 6.25 mg/L | MIC (S. aureus ATCC 25923; [7]): 12.5 mg/L | MIC (S. aureus ATCC 25923; [8]): 50 mg/L | MIC (S. aureus ATCC 25923; [9]): >50 mg/L | MIC (S. aureus ATCC 25923; LYM broth, pH 4.5): 3.13 mg/L | MIC (S. aureus ATCC 25923; LYM broth, pH 5.5): 3.13 mg/L | MIC (S. aureus ATCC 25923; LYM broth, pH 6.5): 3.13 mg/L | MIC (S. aureus ATCC 25923; [10]): 25 mg/L | MIC [3, 5]: 6.25 mg/L | MIC ([3]; LYM broth, 0.5 mM MgCl2): 6.25 mg/L | MIC ([3]; LYM broth, 1.5 mM MgCl2): 6.25 mg/L | MIC ([3]; LYM broth, 2.5 mM MgCl2): 6.25 mg/L | MIC [3, 6]: 6.25 mg/L | MIC [3, 7]: 25 mg/L | MIC [3, 8]: >50 mg/L | MIC [3, 9]: >50 mg/L | MIC ([3]; LYM broth, pH 4.5): 3.13 mg/L | MIC ([3]; LYM broth, pH 5.5): 3.13 mg/L | MIC ([3]; LYM broth, pH 6.5): 3.13 mg/L | MIC [3, 10]: 25 mg/L | MIC [4, 5]: 6.25 mg/L | MIC ([4]; LYM broth, 0.5 mM MgCl2): 6.25 mg/L | MIC ([4]; LYM broth, 1.5 mM MgCl2): 12.5 mg/L | MIC ([4]; LYM broth, 2.5 mM MgCl2): 12.5 mg/L | MIC [4, 6]: 12.5 mg/L | MIC [4, 7]: 25 mg/L | MIC [4, 8]: >50 mg/L | MIC [4, 9]: >50 mg/L | MIC ([4]; LYM broth, pH 4.5): 3.13 mg/L | MIC ([4]; LYM broth, pH 5.5): 3.13 mg/L | MIC ([4]; LYM broth, pH 6.5): 3.13 mg/L | MIC [4, 10]: 12.5 mg/L
